Laboratory results from PMC7752915 (Cell Discovery, 2020).
Counter-ions that a name gives are not always drawn. Like-named read-outs stand apart in the source and are kept apart here.

Assays:
SARS-CoV-2 [1] = details: for IC50: read-out: half maximal inhibitory concentration (IC50) of SARS-CoV-2 replication, viral RNA copy number in supernatant
SARS-CoV-2 [2] = assay: in vitro
[3] = cytotoxicity in Vero E6 cells, CCK-8 assay; details: African green monkey
SARS-CoV-2 [4] = assay: time-of-addition assay (full-time, entry, post-entry treatment) in Vero E6 cells; format: cell-based
SARS-CoV-2 [5] = assay: microbe, parasite or virus in culture; details: Severe acute respiratory syndrome coronavirus 2, Vero C1008, 24 h, read-out: half maximal inhibitory concentration (IC50) of SARS-CoV-2 replication
[6] = cited from earlier work
in vitro = details: African green monkey
[7] = tested on: COVID-19 patients with hypertension; assay: retrospective clinical investigation of hospitalized COVID-19 patients with hypertension as the only comorbidity; format: in vivo, human; details: for Admission to ICU / Invasive ventilation: number (%) of patients
Vero E6 cells = assay: cytotoxicity in Vero E6 cells, CCK-8 assay; details: read-out: half cytotoxic concentration (CC50); Vero E6 cells, CCK-8 assay, 24 h
SARS-CoV-2 [8] = format: cell-based; details: Vero E6 cells, MOI 0.05, 24 h p.i., viral titer in supernatant
SARS-CoV-2 [9] = assay: separate or combined application of CQ and CCB in Vero E6 cells, qRT-PCR and NP immunofluorescence; format: cell-based; details: MOI 0.05, 24 h p.i.
[10] = Vero E6 cells, MOI 0.05, 24 h p.i., serial concentrations
[11] = Supplementary Table S2, by treatment regimen
[12] = Vero E6 cells, MOI 0.05, 24 h p.i.
[13] = Amlodipine n = 19, listed as Amlodipine

Compound: CCCCC(=O)N(Cc1ccc(-c2ccccc2-c2nnn[nH]2)cc1)[C@H](C(=O)O)C(C)C [valsartan]
- inhibition of SARS-CoV-2 replication (in words) (SARS-CoV-2 [1]; [10]): did not show any significant inhibition effects

Compound: NCCOB(c1ccccc1)c1ccccc1 [2ABP, 2-aminoethyl diphenylborinate]
- inhibition of SARS-CoV-2 replication (in words) (SARS-CoV-2 [1]): significantly inhibited virus replication in a concentration-dependent manner
- selectivity ratio (SARS-CoV-2 [2]): > 8.26
- CC50 at 24 h [3]: > 200 µM
- stage of virus infection inhibited (SARS-CoV-2 [4]): mainly inhibit virus infection at a stage after virus entry
- IC50 (SARS-CoV-2 [5]): 24.2 µM

Compound: COCCOC(=O)C1=C(C)NC(C)=C(C(=O)OC/C=C/c2ccccc2)C1c1cccc([N+](=O)[O-])c1 (stereo not shown) [cilnidipine]
- selectivity ratio at 24 h (SARS-CoV-2 [2]): > 8.64
- Cmax ([6]; human, in vivo, 20 mg): 16.5 ng/mL
- CC50 at 24 h (in vitro): > 100 µM
- IC50 (SARS-CoV-2 [5]): 11.6 µM

Compound: COC(=O)C1=C(C)NC(C)=C(C(=O)OC)C1c1ccccc1[N+](=O)[O-] [nifedipine]
- case fatality rate (CFR) ([7]; COVID-19 patients with hypertension as only comorbidity, by antihypertensive drug received): 14.3%
- Fatal, n (%) [7, 11]: 2 (14.3) n (%)

Compound: CCOC(=O)[C@H](CCc1ccccc1)N[C@@H](C)C(=O)N1CCC[C@H]1C(=O)O [enalapril maleate]
- inhibition of SARS-CoV-2 replication (in words) (SARS-CoV-2 [1]; [10]): did not show any significant inhibition effects

Compound: CCCCc1nc(Cl)c(CO)n1Cc1ccc(-c2ccccc2-c2nn[nH]n2)cc1 [losartan potassium]
- inhibition of SARS-CoV-2 replication (in words) (SARS-CoV-2 [1]; [10]): did not show any significant inhibition effects

Compound: C[C@H](N[C@@H](CCc1ccccc1)C(=O)O)C(=O)N1CCC[C@H]1C(=O)O.O.O [enalaprilat dehydrate]
- inhibition of SARS-CoV-2 replication (in words) (SARS-CoV-2 [1]; [10]): did not show any significant inhibition effects

Compound: COC(=O)C1=C(C)NC(C)=C(C(=O)OCCN(C)Cc2ccccc2)C1c1cccc([N+](=O)[O-])c1 (stereo not shown) [nicardipine HCI, nicardipine HCl]
- selectivity ratio at 24 h (SARS-CoV-2 [2]): > 7.51
- Cmax ([6]; volunteers, 60 mg nicardipine hydrochloride): 58.4 ng/mL
- CC50 at 24 h [3]: > 100 µM
- IC50 (SARS-CoV-2 [5]): 13.3 µM

Compound: CC(=O)OCOC(=O)CN(CC(=O)OCOC(C)=O)c1ccccc1OCCOc1ccccc1N(CC(=O)OCOC(C)=O)CC(=O)OCOC(C)=O [BAPTA-AM, 1,2-bis(2-aminophenoxy)ethane-N,N,N′,N′-tetraacetic acid tetrakis(acetoxymethyl ester)]
- selective index (SI = CC50/IC50) (SARS-CoV-2 [1]; Vero E6 cells): 5.83
- inhibition of SARS-CoV-2 replication (in words) (SARS-CoV-2 [1]; [10]): significantly inhibited virus replication in a concentration-dependent manner
- IC50 (SARS-CoV-2 [1]; [12]): 13.9 µM
- CC50 (Vero E6 cells): 81.3 µM

Compound: COC(=O)C1=C(C)NC(C)=C(C(=O)O[C@@H]2CCCN(Cc3ccccc3)C2)[C@@H]1c1cccc([N+](=O)[O-])c1.Cl [benidipine HCI]
- selective index (SI = CC50/IC50) (SARS-CoV-2 [1]; Vero E6 cells): > 26.25
- IC50 (SARS-CoV-2 [1]; [12]): 3.81 µM
- anti-SARS-CoV-2 activity by plaque assay (in words) (SARS-CoV-2 [8]): confirmed by plaque assay
- effect on virus replication, separate or combined application (SARS-CoV-2 [9]): distinct reduction in virus replication
- Cmax ([6]; volunteers, 8 mg of benidipine HCI): ~ 4 ng/mL
- CC50 (Vero E6 cells): > 100 µM
- stage of virus infection inhibited (SARS-CoV-2 [4]; Vero E6 cells, MOI 0.05, 24 h p.i., qRT-PCR, western blot, immunofluorescence): mainly inhibit virus infection at a stage after virus entry

Compound: CCOC(=O)C1=C(COCCN)NC(C)=C(C(=O)OC)C1c1ccccc1Cl (stereo not shown) [amlodipine besylate]
- anti-SARS-CoV-2 activity by plaque assay (in words) (SARS-CoV-2 [8]): confirmed by plaque assay
- Fatal, n (%) [7, 11]: 0 n (%)
- Survival, n (%) [7, 11]: 19 (100) n (%)
- Fatal (outcome) ([7]; Table 1, number (%) of patients, Amlodipine n = 19): 0
- Admission to ICU ([7]; Amlodipine n = 19): none
- Invasive ventilation ([7]; Amlodipine n = 19): none
- Admission to ICU [7, 13]: 0
- Invasive ventilation [7, 13]: 0
- Cmax ([6]; volunteers, 5 mg of amlodipine besylate): ~ 4 ng/mL

Compound: CCN(CC)CCCC(C)Nc1ccnc2cc(Cl)ccc12 (stereo not shown) [CQ, chloroquine]
- effect on virus replication, separate or combined application (SARS-CoV-2 [9]): distinct reduction in virus replication
